# Patent publication US5082980A (Case Western Reserve University, priority 1990, dated 1992)
# How the values were obtained:
# cerebral blood flow = settings: areas of high flow rate; limitation of water extraction in the brain tissue; cited from earlier work
# [1] = Sterility and pyrogen status of the injectable product; settings: patient-ready product
# [2] = Toxic doses / physiological effects of the non-radioactive impurities; settings: quantity present in product, Table I
structure (smiles),measurement,setting,value
[15OH2] [^15 O labeled water],"cerebral blood flow measurement, deviation",cerebral blood flow,underestimation of cerebral blood flow in areas of high flow rate
CCCC[15OH] [^15 O labeled butanol],sterility and pyrogen status,[1],sterile and pyrogen-free
OB(O)O [boric acid],quantity in the product relative to quantities with observed physiological effects,[2],well below any quantity which has been observed to have any physiological effects
